Laboratory results as given in patent US7985774B2, “Use of 3,5-seco-4-nor-cholestane derivatives for obtaining a cytoprotective drug” (Trophos, priority 2006, dated 2011).

Legend:
[1] = tested on: caspase-3; test: Caspase-3 activity (apoptosis) after doxorubicin; type: cell-based, rabbit; conditions: 8 hrs after exposure, control 19±9
Protocol: Isolated ventricular cells are obtained from hearts of male New Zealand rabbits as described in A. d'Anglemont de Tassigny et al., Fund. Clin. Pharmacol, 18: 531-38, 2004. Briefly, the rabbits (2.0-2.5 kg) are anaesthetized with a pentobarbital solution (50 mg/kg) and they then receive heparin (200 IU/kg). The hearts are excised and immediately perfused, for 10-15 minutes by means of a Langendorff apparatus without recirculation with an oxygenated tyrode (calcium-free) isotonic solution (95%, 2-5% CO2) (in mM: NaCl 135, KCl 5.4, Na2PO4 0.33, MgCl2 1.0, HEPES 10, pH adjusted to 7.4 with 1N NaOH at 37° C., 280-300 mOsmol/kgH2O). Next, all the hearts are perfused for 3 minutes in the “recirculation” mode with the same calcium-free Tyrode solution (coronary flow rate, 10-15 mL/min) added with 1 mg/mL of type II collagenase and 0.28 mg/mL of XIV type protease. Finally, all the hearts are perfused in a mode without any recirculation with the same solution of Tyrode supplemented with 0.3 mM of CaCl2 for 10 min. The left ventricle is removed and cut into small pieces; cell dissociation is achieved by mild mechanical stirring. Extracellular calcium is added by increments every 15 minutes, in order to reach a physiological concentration of 1.0 mM. […]
Caspase-3 activity is used as a quantitative method for measuring apoptosis. […] The fluorogenic substrate for measuring caspase-3 activity (DEVD) is marked with the fluorochrome, 7-amino-4-methyl coumarine (AMC), which produces […] fluorescence detectable in UV light at 360/460 nm for 210 min. […]
(§1) Apoptosis is induced in isolated cardiomyocytes by 3-8 hour exposure to 1 μM of doxorubicin added into an isotonic solution containing (in mM) NaCl 110, KCl 5.4, Na2PO4 0.33, NaHCO3 25, glucose 5, MgCl2 0.8, CaCl2 1, pH adjusted to 7.4. […] The contractility of cardiomyocytes was measured every hour during the 8 hrs of exposure to doxorubicin. […]

[2] = tested on: rabbit ventricular cardiomyocytes; test: Contractile dysfunction test induced by doxorubicin (sarcomer shortening); type: cell-based; conditions: after 4 hrs of exposure
Protocol: A stock solution of 3,5-seco-4-nor-cholestan-5-one oxime-3-ol at a concentration of 10 mM in 100% DMSO was used.
The final concentration in DMSO was the same for all the experimental points, independently of the molecular concentrations used.
3,5-seco-4-nor-cholestan-5-one oxime-3-ol was tested at concentrations of 0.1 and 0.3 μM, diluted in a Tyrode solution (composition in mmol/L: NaCl 135, KCl 5.4, NaH2PO4 0.33, CaCl2 1.2, MgCl2 1.0, Hepes 10; pH adjusted to 7.4 with NaOH).
Isolated ventricular cells are obtained from hearts of male New Zealand rabbits as described in A. d'Anglemont de Tassigny et al., Fund. Clin. Pharmacol, 18: 531-38, 2004. Briefly, the rabbits (2.0-2.5 kg) are anaesthetized with a pentobarbital solution (50 mg/kg) and they then receive heparin (200 IU/kg). The hearts are excised and immediately perfused, for 10-15 minutes by means of a Langendorff apparatus without recirculation with an oxygenated tyrode (calcium-free) isotonic solution (95%, 2-5% CO2) (in mM: NaCl 135, KCl 5.4, Na2PO4 0.33, MgCl2 1.0, HEPES 10, pH adjusted to 7.4 with 1N NaOH at 37° C., 280-300 mOsmol/kgH2O). […]
The myocytes were selected for the study according to the following criterion: a rod-like aspect with very apparent striations and no intracellular vacuola, no spontaneous contraction when they are stimulated with 1 mM Ca^2+, and with constant rest length and contraction amplitude. The length of the sarcomers was measured by means of a video image analysis program and the data were acquired at a rate of 240 samples/s. […]
as §1

CC(C)CCC[C@@H](C)[C@H]1CC[C@H]2[C@@H]3CC/C(=N\O)[C@](C)(CCCO)[C@H]3CC[C@]12C [3,5-seco-4-nor-cholestan-5-one oxime-3-ol]
caspase-3 activity ([1]; doxorubicin 1 μM + compound 0.1 μM): 27 ± 20 fmol/min
caspase-3 activity ([1]; doxorubicin 1 μM + compound 0.3 μM): 15 ± 7 fmol/min
shortening of the peak relatively to the base line ([2]; doxorubicin 1 μM + compound 0.1 μM (15 min pre-treatment)): 18.9±5.4%
shortening of the peak relatively to the base line ([2]; doxorubicin 1 μM + compound 0.3 μM (15 min pre-treatment)): −8.1±9.6%
